These results are taken from patent US11691972B2, “Compounds for targeted degradation of BRD9” (C4 Therapeutics, Inc., priority 2020, dated 2023).

Molecules are shown by their SMILES.

For orientation: DC50 means the concentration giving 50% degradation.

The first test concerns the target T1, BRD9 (Homo sapiens, UniProt Q9H8M2).
T1 sequence (Q9H8M2 1-597): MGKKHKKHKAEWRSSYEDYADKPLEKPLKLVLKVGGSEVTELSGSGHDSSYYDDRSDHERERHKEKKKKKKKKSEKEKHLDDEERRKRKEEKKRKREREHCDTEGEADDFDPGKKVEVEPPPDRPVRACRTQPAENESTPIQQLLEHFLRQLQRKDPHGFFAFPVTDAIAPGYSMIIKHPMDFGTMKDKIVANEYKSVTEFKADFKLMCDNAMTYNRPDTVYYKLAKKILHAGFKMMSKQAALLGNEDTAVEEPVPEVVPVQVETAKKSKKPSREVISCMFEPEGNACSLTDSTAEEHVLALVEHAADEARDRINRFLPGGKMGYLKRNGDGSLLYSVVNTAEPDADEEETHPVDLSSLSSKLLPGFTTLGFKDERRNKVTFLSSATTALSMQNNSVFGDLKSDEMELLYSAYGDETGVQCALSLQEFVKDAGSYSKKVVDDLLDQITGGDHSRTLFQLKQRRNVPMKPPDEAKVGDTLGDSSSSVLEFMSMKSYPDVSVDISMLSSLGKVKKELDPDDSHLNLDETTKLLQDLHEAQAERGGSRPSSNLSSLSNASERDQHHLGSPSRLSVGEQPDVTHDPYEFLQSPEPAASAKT
As to the kind of experiment: HiBiT BRD9 degradation assay in 293T.166 (BRD9-HiBiT) cells. In kind it is cell-based. On the set-up: endogenously expressing BRD9 with HiBiT fusion tag via CRISPR; host or cells: 293T.166 (BRD9-HiBiT), also expressing LgBiT ectopically. The settings on record: Table 1; 293T.166 cells, 2.0 hours; class symbols; read-out: HiBiT-Degradation 293T.166 BRD9 2.0 hours (DC50). Here is the method: Selected compounds were tested in a BRD9 degradation assay using the HiBit Method.
Dulbecco's modified Eagle medium (DMEM) without phenol red and fetal bovine serum (FBS) were purchased from Gibco (Grand Island, N.Y., USA). Nano-Glo® HiBiT Lytic Assay System was purchased from Promega (Madison, Wis., USA). 293T.166 (BRD9-HiBiT) cell line, endogenously expressing BRD9 with HiBiT fusion tag via CRISPR and ectopically expressing LgBiT tag, was purchased from Promega (Madison, Wis., USA). 293T.167 (BRD7-HiBiT) cell line, endogenously expressing BRD7 with HiBiT fusion tag via CRISPR and ectopically expressing LgBiT tag, was purchased from Promega (Madison, Wis., USA). 293T.92 (BRD4-HiBiT) cell line, endogenously expressing BRD4 with HiBiT fusion tag via CRISPR and ectopically expressing LgBiT tag, was generated in-house. Cell culture flasks and 384-well microplates were acquired from VWR (Radnor, Pa., USA).
BRD9 degradation was determined based on quantification of luminescent signal using Nano-Glo® HiBiT Lytic Assay kit. Test compounds were added to the 384-well plate from a top concentration of 10 μM with 11 points, half log titration in duplicates. 293T.166 cells were added into 384-well plates at a cell density of 10,000 cells per well. The plates were kept at 37° C. with 5% CO2 for 2 hours. BRD7 and BRD4 degradation was similarly determined with 293T.167 cells and 293T.92 cells, respectively. The cells treated in the absence of the test compound were the negative control and the cells without Nano-Glo® HiBiT Lytic reagent were the positive control. After 2-hour incubation, Nano-Glo® HiBiT Lytic Assay reagents were added to the cells. Luminescence was acquired on EnVision™ Multilabel Reader (PerkinElmer, Santa Clara, Calif., USA).
Regarding `COc1cc(-c2cn(C)c(=O)c3[nH]ncc23)cc(OC)c1CN1CCC(C2CCN(c3ccc(NC4CCC(=O)NC4=O)cc3)CC2)CC1` (stereo not drawn) [Compound 70, 3-[4-[4-[1-[[2,6-dimethoxy-4-(6-methyl-7-oxo-1H-pyrazolo[3,4-c]pyridin-4-yl)phenyl]methyl]-4-piperidyl]-1-piperidyl]anilino]piperidine-2,6-dione], the DC50 is under 100 nM.

`COc1cc(-c2cc(C)c(=O)n(C)c2)cc(OC)c1CN1CCN(C(=O)CN2CCC(c3ccc(NC4CCC(=O)NC4=O)cc3)CC2)CC1` (stereo not drawn) [Compound 31]: the DC50 was under 100 nM.

On to `COc1cc(-c2cn(C)c(=O)c3[nH]ncc23)cc(OC)c1CN1CCc2c(CC3CCN(c4ccc(NC5CCC(=O)NC5=O)cc4F)CC3)cccc2C1` (stereo not drawn) [Compound 106], for which the DC50 was under 100 nM.

Regarding `COc1cc(-c2cn(C)c(=O)c3[nH]ncc23)cc(OC)c1CN1CCN(C(=O)CC2CCN(c3ccc(NC4CCC(=O)NC4=O)cc3)CC2)CC1` (stereo not drawn) [Compound 50], the DC50 was under 100 nM.

`COc1cc(-c2cn(C)c(=O)c3[nH]ncc23)cc(OC)c1CN1CCN(C(=O)CN2CCN(c3ccc(NC4CCC(=O)NC4=O)cc3F)CC2)C(C)(C)C1` (stereo not drawn) [Compound 111, 3-[4-[4-[2-[4-[[2,6-dimethoxy-4-(6-methyl-7-oxo-1H-pyrazolo[3,4-c]pyridin-4-yl)phenyl]methyl]-2,2-dimethyl-piperazin-1-yl]-2-oxo-ethyl]piperazin-1-yl]-3-fluoro-anilino]piperidine-2,6-dione]: the DC50 was under 100 nM.

Turning to `COc1cc(-c2cn(C)c(=O)c3[nH]ncc23)cc(Cl)c1CN1CCN(C(=O)CC2CCN(c3ccc(NC4CCC(=O)NC4=O)cc3C(F)(F)F)CC2)CC1` (stereo not drawn) [Compound 53], the DC50 was under 100 nM.

Take `COc1cc(-c2cn(C)c(=O)c(C)c2C)cc(Cl)c1CN1CCC(F)(CCC2CCN(c3ccc(NC4CCC(=O)NC4=O)cc3F)CC2)CC1` (stereo not drawn) [Compound 153]: the DC50 is under 100 nM.

Turning to `COc1cc(-c2cn(C)c(=O)c3cnccc23)cc(OC)c1CN1CCN(C(=O)CC2CCN(c3ccc(NC4CCC(=O)NC4=O)cc3C(F)(F)F)CC2)CC12CC2` (stereo not drawn) [Compound 59], the DC50 is under 100 nM.

Regarding `COc1cc(-c2cn(C)c(=O)c3cnccc23)cc(Cl)c1C=C1CCN(C(=O)CC2CCN(c3ccc(NC4CCC(=O)NC4=O)cc3F)CC2)CC1` (stereo not drawn) [Compound 161, 3-[4-[4-[2-[4-[[2-chloro-6-methoxy-4-(2-methyl-1-oxo-2,7-naphthyridin-4-yl)phenyl]methylene]-1-piperidyl]-2-oxo-ethyl]-1-piperidyl]-3-fluoro-anilino]piperidine-2,6-dione], the DC50 was under 100 nM.

For `COc1cc(-c2cn(C)c(=O)c3[nH]ncc23)cc(F)c1CN1CCC(N(C)C(=O)N2CCC(c3ccc(NC4CCC(=O)NC4=O)cc3)CC2)CC1` (stereo not drawn) [Compound 112, 4-[4[(2,6-dioxo-3-piperidyl)amino]phenyl]-N-[1-[[2-fluoro-6-methoxy-4-(6-methyl-7-oxo-1H-pyrazolo[3,4-c]pyridin-4-yl)phenyl]methyl]-4-piperidyl]-N-methyl-piperidine-1-carboxamide], the DC50 was under 100 nM.

For the compound `COc1cc(-c2cn(C)c(=O)c(C)c2C)cc(Cl)c1C(=O)N1CCC(N(C)C(=O)N2CCC(c3ccc(NC4CCC(=O)NC4=O)cc3)CC2)CC1` (stereo not drawn) [Compound 133], the DC50 was under 100 nM.

Turning to `COc1cc(-c2cn(C)c(=O)c(C)c2C)cc(Cl)c1CN1CCC(C2CCN(c3ccc(NC4CCC(=O)NC4=O)cc3F)CC2)C(F)(F)C1` (stereo not drawn) [Compound 197, 3-[4-[4-[1-[[2-chloro-6-methoxy-4-(1,4,5-trimethyl-6-oxo-3-pyridyl)phenyl]methyl]-3,3-difluoro-4-piperidyl]-1-piperidyl]-3-fluoro-anilino]piperidine-2,6-dione], the DC50 is under 100 nM.

For the compound `Cn1cc(-c2ccc(CN3CCN(C(=O)CN4CCC(c5ccc(NC6CCC(=O)NC6=O)cc5)CC4)CC3)c(OC(F)(F)F)c2)c2cn[nH]c2c1=O` (stereo not drawn) [Compound 20], the DC50 is under 100 nM.

With `COc1cc(-c2cn(C)c(=O)c3cnccc23)cc(OC)c1CN1CCN(C(=O)CN2CCC(c3ccc(NC4CCC(=O)NC4=O)cc3)CC2)CC1` (stereo not drawn) [Compound 15], the DC50 is under 100 nM.

For the compound `COc1cc(-c2cn(C)c(=O)c(C)c2C)cc(OC)c1CN1CCN(C(=O)CC2CCN(c3ccc(NC4CCC(=O)NC4=O)cc3C(F)(F)F)CC2)CC12CC2` (stereo not drawn) [Compound 60], the DC50 was under 100 nM.

On to `COc1cc(-c2cn(C)c(=O)c3cnccc23)cc(OC)c1CN1CCC(N2CCN(c3ccc(NC4CCC(=O)NC4=O)cc3F)CC2)C(F)(F)C1` (stereo not drawn) [Compound 184], for which the DC50 was under 100 nM.

`COc1cc(-c2cn(C)c(=O)c(C)c2C)cnc1CN1CCC(C2CCN(c3ccc(NC4CCC(=O)NC4=O)cc3F)CC2)CC1` (stereo not drawn) [Compound 82]: the DC50 is under 100 nM.

In the case of `COc1cc(-c2cn(C)c(=O)c3[nH]ncc23)cc(OC)c1CNc1cccc(C(=O)N2CCC(c3ccc(NC4CCC(=O)NC4=O)cc3)CC2)c1` (stereo not drawn) [Compound 166, 3-[4-[1-[3-[[2,6-dimethoxy-4-(6-methyl-7-oxo-1H-pyrazolo[3,4-c]pyridin-4-yl)phenyl]methylamino]benzoyl]-4-piperidyl]anilino]piperidine-2,6-dione], the DC50 is under 100 nM.

Take `COc1cc(-c2cn(C)c(=O)c3[nH]ncc23)cc(OC)c1CN1CCN(C(=O)CN2CCC(c3ccc(NC4CCC(=O)NC4=O)c(Cl)c3)CC2)CC1` (stereo not drawn) [Compound 10]: the DC50 was under 100 nM.

With `CC(c1ccc(-c2cn(C)c(=O)c3cnccc23)cc1OC(F)(F)F)N1CCC(C2CCN(c3ccc(NC4CCC(=O)NC4=O)cc3F)CC2)CC1` (stereo not drawn) [Compound 92], the DC50 is under 100 nM.

For the compound `COc1cc(-c2cn(C)c(=O)c3ccccc23)cc(OC)c1CN1C2CCC1CN(C(=O)CC1CCN(c3ccc(NC4CCC(=O)NC4=O)cc3C(F)(F)F)CC1)C2` (stereo not drawn) [Compound 64], the DC50 was under 100 nM.

With `COc1cc(-c2cn(C)c(=O)c3[nH]ncc23)cc(F)c1C(=O)N1CCN(C(=O)CN2CCC(c3ccc(NC4CCC(=O)NC4=O)cc3)CC2)CC1` (stereo not drawn) [Compound 47], the DC50 was under 100 nM.

As to `COc1cc(-c2cn(C)c(=O)c3cnccc23)cc(F)c1C(=O)N1CCC(N2CCN(c3ccc(NC4CCC(=O)NC4=O)cc3F)CC2)C(F)(F)C1` (stereo not drawn) [Compound 226], the DC50 was under 100 nM.

Staying with this test, now noted: Table 1; 293T.166 cells, 2.0 hours; numeric bound; read-out: HiBiT-Degradation 293T.166 BRD9 2.0 hours (DC50).
Regarding `Cc1c(-c2ccc(C(=O)N3CCC(C4CCN(c5ccc(NC6CCC(=O)NC6=O)cc5F)CC4)CC3)c(OC(F)(F)F)c2)cn(C)c(=O)c1C` (single isomer, unassigned) [Compound 213, 3-[3-fluoro-4-[4-[1-[2-(trifluoromethoxy)-4-(1,4,5-trimethyl-6-oxo-3-pyridyl)benzoyl]-4-piperidyl]-1-piperidyl]anilino]piperidine-2,6-dione], the DC50 was over 800 nM.

Staying with this test, now noted: Table 2; 293T.166 cells, 2.0 hours; class symbols; read-out: HiBiT-Degradation 293T.166 BRD9 2.0 hours (DC50).
As to `COc1cc(-c2cn(C)c(=O)c(C)c2C)cc(OC)c1CN1CCC(N2CCN(c3ccc(OC4CCC(=O)NC4=O)cc3F)CC2)C(F)(F)C1` (stereo not drawn) [Compound 251, 3-[4-[4-[1-[[2,6-dimethoxy-4-(1,4,5-trimethyl-6-oxo-3-pyridyl)phenyl]methyl]-3,3-difluoro-4-piperidyl]piperazin-1-yl]-3-fluoro-phenoxy]piperidine-2,6-dione], the DC50 is under 100 nM.

As to `COc1cc(-c2cn(C)c(=O)c3cnccc23)cc(Cl)c1CN1CCC(C2CCN(c3ccc(NC4CCC(=O)NC4=O)nc3)CC2)C(F)(F)C1` (stereo not drawn) [Compound 262], the DC50 is under 100 nM.

Staying with this test, now noted: Table 2; 293T.166 cells, 2.0 hours; numeric bound; read-out: HiBiT-Degradation 293T.166 BRD9 2.0 hours (DC50).
For the compound `COc1cc(-c2cn(C)c(=O)c(C)c2C)cc(Cl)c1CN1CCc2c(CC3CCN(c4ccc(NC5CCC(=O)NC5=O)cc4F)CC3)cccc2C1` (single isomer, unassigned) [Compound 249], the DC50 is over 800 nM.
